This is an account of results in patent US10934278B2, “Compounds” (Autifony Therapeutics Limited, priority 2016, dated 2021).

Some results are limits rather than exact numbers.

Data set [1] addresses T1, human Kv3.1 channels (Homo sapiens, UniProt P48547).
T1 construct: expressed in transfected cells; host or cells: CHO/Gam/E1A-clone22 (CGE22) cells, CHO-K1-derived, transiently transduced with BacMam (pFBM/human Kv3.1, MOI 50)
T1 sequence (P48547 1-511): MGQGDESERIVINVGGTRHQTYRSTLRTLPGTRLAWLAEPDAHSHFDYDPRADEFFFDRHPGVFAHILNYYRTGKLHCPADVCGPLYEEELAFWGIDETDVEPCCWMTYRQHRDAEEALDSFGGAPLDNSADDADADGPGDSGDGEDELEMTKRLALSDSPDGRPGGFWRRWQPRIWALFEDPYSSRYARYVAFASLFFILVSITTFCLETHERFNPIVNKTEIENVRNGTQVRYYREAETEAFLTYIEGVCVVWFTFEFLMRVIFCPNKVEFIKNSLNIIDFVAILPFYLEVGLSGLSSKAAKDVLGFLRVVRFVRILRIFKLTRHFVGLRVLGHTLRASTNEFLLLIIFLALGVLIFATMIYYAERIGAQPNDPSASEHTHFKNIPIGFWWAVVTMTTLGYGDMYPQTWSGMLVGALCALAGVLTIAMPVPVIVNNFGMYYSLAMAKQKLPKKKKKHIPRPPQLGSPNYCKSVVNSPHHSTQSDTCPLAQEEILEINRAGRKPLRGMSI
Nature of the data set: hKv3.1 IonWorks Quattro whole-cell current potentiation assay. Format: cell-based. The note with it: for % current increase @ conc 1.56 μM: Kv3.1, 1.56 μM; for % current increase @ conc 3.12 μM: Kv3.1, 3.12 μM; for % current increase @ conc 12.5 μM: Kv3.1, 12.5 μM; for EC50: hKv3.1, -15 mV voltage step, read-out: pEC50 (Kv3.1) (converted). An excerpt:
To assess compound effects on human Kv3.1 channels (hKv3.1), CHO/Gam/E1A-clone22 alias CGE22 cells were transduced using a hKv3.1 BacMam reagent. This cell line was designed to be an improved CHO-K1-based host for enhanced recombinant protein expression as compared to wild type CHO-K1. The cell line was generated following the transduction of CHO-K1 cells with a BacMam virus expressing the Adenovirus-Gam1 protein and selection with Geneticin-G418, to generate a stable cell line, CHO/Gam-A3. CHO/Gam-A3 cells were transfected with pCDNA3-E1A-Hygro, followed by hygromycin-B selection and FACS sorting to obtain single-cell clones. BacMam-Luciferase and BacMam-GFP viruses were then used in transient transduction studies to select the clone based on highest BacMam transduction and recombinant protein expression. CGE22 cells were cultured in the same medium used for the hKv3.2 CHO-K1 stable cell line with the addition of 300 ug/ml hygromycin-B and 300 ug/ml G418. All other conditions were identical to those for hKv3.2 CHO-K1 cells. The day before an experiment 10 million CGE22 cells were plated in a T175 culture flask and the hKv3.1 BacMam reagent (pFBM/human Kv3.1) was added (MOI of 50). Transduced cells were used 24 h later.
Cell Preparation for Ion Works Quattro™ Experiments The day of the experiment, cells were removed from the incubator and the culture medium removed. Cells were washed with 5 ml of Dulbecco's PBS (DPBS) calcium and magnesium free and detached by the addition of 3 ml Versene (Invitrogen, Italy) followed by a brief incubation at 37° C. for 5 minutes. The flask was tapped to dislodge cells and 10 ml of DPBS containing calcium and magnesium was added to prepare a cell suspension. The cell suspension was then placed into a 15 ml centrifuge tube and centrifuged for 2 min at 1200 rpm. After centrifugation, the supernatant was removed and the cell pellet re-suspended in 4 ml of DPBS containing calcium and magnesium using a 5 ml pipette to break up the pellet. Cell suspension volume was then corrected to give a cell concentration for the assay of approximately 3 million cells per ml.
Experiments were conducted at r.t. using lonWorks Quattro™ planar array electrophysiology technology (Molecular Devices Corp.) with PatchPlate™ PPC. Stimulation protocols and data acquisition were carried out using a microcomputer (Dell Pentium 4). Planar electrode hole resistances (Rp) were determined by applying a 10 mV voltage step across each well. These measurements were performed before cell addition. After cell addition and seal formation, a seal test was performed by applying a voltage step from −80 mV to −70 mV for 160 ms. Following this, amphotericin-B solution was added to the intracellular face of the electrode to achieve intracellular access. Cells were held at −70 mV. Leak subtraction was conducted in all experiments by applying 50 ms hyperpolarizing (10 mV) prepulses to evoke leak currents followed by a 20 ms period at the holding potential before test pulses. For hKv3.2 and hKv3.1 assays, from the holding potential of −70 mV, a first test pulse to −15 mV was applied for 100 ms and following a further 100 ms at −70 mV, a second pulse to 40 mV was applied for 50 ms. Cells were then maintained for a further 100 ms at −100 mV and then a voltage ramp from −100 mV to 40 mV was applied over 200 ms. For hKv3.3 assays, from the holding potential of −70 mV, a first test pulse to 0 mV was applied for 500 ms and following a further 100 ms at −70 mV, a second pulse to 40 mV was applied for 200 ms. These longer test pulses were used to study inactivation of hKv3.3 channels. Test pulses protocol may be performed in the absence (pre-read) and presence (post-read) of the test compound. Pre- and post-reads may be separated by the compound addition followed by a 3 minute incubation.
The intracellular solution contained the following (in mM): K-gluconate 100, KCl 54, MgCl2 3.2, HEPES 5, adjusted to pH 7.3 with KOH. […]
In general terms: In patch-clamp work, channel activity is measured electrically.

For data set [2], the system named is rat model of persistent inflammatory pain. Nature of the data set: Persistent inflammatory pain model (FCA), paw withdrawal thresholds. It is filed as in vivo. The protocol: (§1) Subjects comprised male, Wistar Hanover rats, 6 animals per group (225±2 g).
(§2) Vehicle (12% Captisol®; 0.5% w/v HPMC and 0.1% w/v Tween-80; 5 ml/kg via the intraperitoneal route) was prepared using autoclaved deionized water not more than one week prior to use.
(§3) The control for the neuropathic pain model was lamotrigine, administered at 30 mg/kg via oral delivery. The control for the inflammatory pain model was diclofenac, administered at 30 mg/kg via oral delivery. Statistical analysis was performed using one-way ANOVA, and comparisons were performed with time-matched vehicle group using Tukey's HSD test wherein *p<0.05, **p<0.01, ***p<0.001.
Mechanical hyperalgesia was examined in a model of persistent inflammatory pain.
The hyperalgesia was induced by an intraplantar injection (25 μl) of Freund's Complete Adjuvant (FCA) into the left hind paw.
To assess the effect of the test compound, paw withdrawal thresholds were measured on both the ipsilateral (FCA-injected) and contralateral (non-injected) paws, prior to (naïve) and 24 h following FCA injection (predose), and then at 1, 3, 6 and 24 h after drug or vehicle administration.
(§4) Mechanical hyperalgesia was examined in a model of neuropathic pain by measuring paw withdrawal thresholds (PWT) to increasing mechanical force applied to the dorsal surface of the rat paw using an Analgesymeter (Ugo-Basile, Milan) equipped with a wedge-shaped probe (area 1.75 mm^2). Cut-off was set at 250 g and the end-point was taken as withdrawal of the hind paw. Both ipsilateral and contralateral paw withdrawal readings were taken.
(§5) Data were expressed as withdrawal threshold (g) and percentage reversals calculated according to the following formula: […]

For data set [3], the system named is rat model of neuropathic pain. Nature of the data set: Neuropathic pain model, partial ligation of the sciatic nerve, paw withdrawal thresholds. Format: in vivo. The conditions noted are these: for Peak reversal of mechanical sensitivity: 3 h post-dose. The protocol: as §1, §2, §3
Neuropathic pain was induced by partial ligation of the sciatic nerve. Briefly, the rats were anaesthetised (isoflurane/O2 inhalation), the left sciatic nerve exposed at mid-thigh level through a small incision and ⅓ to ½ of the nerve thickness tightly ligated within a 7.0 silk suture. The wound was closed with surgical glue. Animals were allowed to recover and tested 12-15 days following surgery.
Withdrawal thresholds were measured on both the ipsilateral (ligated) and contralateral (non-ligated) paws, prior to (predose) and then up to 24 h following drug or vehicle administration.
Pre-dose behavioural measurements were obtained by measuring paw withdrawals 14 days following nerve ligation; before the initiation of drug treatment. Following treatment, further readings were taken at 1, 3, 6 and 24 hour after administration.
as §4
Cold sensitivity can be assessed using a commercially available cold-plate (Ugo Basile, Milan). The cold plate is allowed to stabilize for 5 minutes at the set temperature prior to testing. Paw withdrawal latencies (PWL) are determined with the cold-plate set at 10° C. The animals are lightly restrained and each hind paw in turn placed onto the surface of the cold-plate. The end point is taken as the withdrawal of the paw and recorded as the withdrawal latency for the ipsilateral and the contralateral paw. A maximum cut-off of 30 seconds is used for each paw.
as §5

In the case of `Cc1ccc(O[C@@H]2CC[C@@H](N3C(=O)NC(C)(C)C3=O)C2)c2c1OCC21CC1` (racemic), in data set [1], the “% current increase @ conc 1.56 μM” value worked out at 7%, the “% current increase @ conc 3.12 μM” value is listed as 10%, the “% current increase @ conc 12.5 μM” value is recorded as 12% and the EC50 is > 50.1 µM.

In the case of `O=C(O)Cc1ccccc1Nc1c(Cl)cccc1Cl` [diclofenac], the “peak reversals in mechanical sensitivity” value in data set [2] (positive control, 30 mg/kg oral, 1 h post-dose) came to 64%.

As to `Cc1ccc(O[C@H]2C[C@H](N3C(=O)NC(C)(C)C3=O)C2)c2c1OCC21CC1`, in data set [1], the “% current increase @ conc 1.56 μM” value turned out to be 25%, the “% current increase @ conc 3.12 μM” value was 60%, the “% current increase @ conc 12.5 μM” value was 105% and the EC50 was 3.55 µM.

On to `Nc1nnc(-c2cccc(Cl)c2Cl)c(N)n1` [lamotrigine], for which, in data set [3] (positive control, 30 mg/kg oral), the “Peak reversal of mechanical sensitivity” value worked out at 67%.

`Cc1ccc(Oc2ncc(N3C(=O)NC(C)(C)C3=O)cn2)c2c1OCC21CC1` [Compound X, 5,5-dimethyl-3-[2-(7-methylspiro[2H-benzofuran-3,1′-cyclopropane]-4-yl)oxypyrimidin-5-yl]imidazolidine-2,4-dione]: the “Peak reversal of mechanical sensitivity” value in data set [3] (10 mg/kg i.p.) stood at 31%; in data set [3] (30 mg/kg i.p.) it was 73%; in data set [3] (60 mg/kg i.p.), 81%; in data set [2] (10 mg/kg i.p., 3 h post-dose), 64%; in data set [2] (30 mg/kg i.p., 1 h post-dose), 74%; in data set [2] (60 mg/kg i.p., 1 h post-dose), 92%. In addition, in data set [3] (10, 30, 60 mg/kg i.p.), the “effect on mechanical sensitivity, ipsilateral paw” value is recorded as “dose-related reversal of mechanical sensitivity”. For the same compound, the “changes in normal behaviour” value in data set [3] (administered acutely, neuropathic and inflammatory pain models) was “without causing significant changes in normal behaviour”. Further, in data set [3] (rat, in vivo), the “contralateral paw withdrawal thresholds to mechanical pressure” value is listed as “significant increases”. The duration of efficacy result in data set [3] (rat, in vivo) is reported as “up to 6 h”. In data set [3] (rat, in vivo), the “time of maximal efficacy after dosing” value was 1 to 3 h. Also, the “effect on cold sensitivity, ipsilateral paw” value in data set [3] (results not shown) is reported as “marked, dose-related reversal of cold sensitivity”. Besides, the general behaviour observation result in data set [3] (treated rats) was “induced flaccidity in some of the treated rats”. Moreover, the “reversal of mechanical sensitivity” value in data set [2] (60 mg/kg i.p., 6 h post-dose) was determined as 45%. Besides, the “effect on mechanical sensitivity” value in data set [2] (10, 30, 60 mg/kg i.p.) was “dose-related reversal of mechanical sensitivity”. For the same compound, the “time of peak reversal post-dose” value in data set [2] (rat, in vivo) fell in the range of 1 to 3 h.
